The test system of the test is MV-4-11 cells. Nature of the test: Gene expression microarray analysis (Affymetrix PrimeView) and GSEA. Format: cell-based, human. Also on record: RFU PODN (11730768_x_at) / Fold change /veh PODN (11730768_x_at) / RFU LINC00158 (11744669_a_at) / Fold change /veh LINC00158 (11744669_a_at) / RFU DUSP10 (11751237_a_at) / Fold change /veh DUSP10 (11751237_a_at) / RFU ID3 (11757404_x_at) / Fold change /veh ID3 (11757404_x_at) / RFU PLEKHG5 (11737974_s_at) / Fold change /veh PLEKHG5 (11737974_s_at) / RFU LRRC4B (11730491_at) / Fold change /veh LRRC4B (11730491_at) / RFU GIMAP4 (11747438_a_at) / Fold change /veh GIMAP4 (11747438_a_at) / RFU KRT8 (11758183_x_at) / Fold change /veh KRT8 (11758183_x_at) / RFU CNN1 (11734310_a_at) / Fold change /veh CNN1 (11734310_a_at) / RFU VPS37D (11726825_at) / Fold change /veh VPS37D (11726825_at) / RFU C10orf10 (11716522_x_at) / Fold change /veh C10orf10 (11716522_x_at) / RFU KIR2DL2 /// KIR2DL4 /// KIR2DL5A /// KIR2DL5B /// KIR2DS1 /// KIR2DS2 /// KIR2DS3 /// KIR2DS4 /// KIR3DL3 /// KIR3DL3 /// KIR3DS1 (11738374_at) / Fold change /veh KIR2DL2 /// KIR2DL4 /// KIR2DL5A /// KIR2DL5B /// KIR2DS1 /// KIR2DS2 /// KIR2DS3 /// KIR2DS4 /// KIR3DL3 /// KIR3DL3 /// KIR3DS1 (11738374_at) / RFU C1QL1 (11718748_at) / Fold change /veh C1QL1 (11718748_at) / RFU TMPRSS4 (11747572_a_at) / Fold change /veh TMPRSS4 (11747572_a_at) / RFU HAMP (11756126_x_at) / Fold change /veh HAMP (11756126_x_at) / RFU RNFT2 (11725882_a_at) / Fold change /veh RNFT2 (11725882_a_at) / RFU NR4A2 (11747474_a_at) / Fold change /veh NR4A2 (11747474_a_at) / RFU ABCC12 (11746883_a_at) / Fold change /veh ABCC12 (11746883_a_at) / RFU TMEM136 (11760407_x_at) / Fold change /veh TMEM136 (11760407_x_at) / RFU CLDN22 /// WWC2 (11732394_at) / Fold change /veh CLDN22 /// WWC2 (11732394_at) / RFU HLA-DPB1 (11760878_x_at) / Fold change /veh HLA-DPB1 (11760878_x_at) / RFU SPINT1 (11716480_a_at) / Fold change /veh SPINT1 (11716480_a_at) / RFU GAP43 (11754022_s_at) / Fold change /veh GAP43 (11754022_s_at) / RFU A4GNT (11735810_at) / Fold change /veh A4GNT (11735810_at) / RFU PRB3 (11715151_x_at) / Fold change /veh PRB3 (11715151_x_at) / RFU TUBB4B (11761932_at) / Fold change /veh TUBB4B (11761932_at) / RFU CAPN14 (11732068_a_at) / Fold change /veh CAPN14 (11732068_a_at) / RFU TMCC2 (11721928_a_at) / Fold change /veh TMCC2 (11721928_a_at) / RFU IRGQ (11745062_a_at) / Fold change /veh IRGQ (11745062_a_at) / RFU FAM174B (11720279_a_at) / Fold change /veh FAM174B (11720279_a_at) / RFU TMPRSS4 (11748680_a_at) / Fold change /veh TMPRSS4 (11748680_a_at) / RFU FAM212B (11763350_a_at) / Fold change /veh FAM212B (11763350_a_at) / RFU PLEKHG5 (11743358_a_at) / Fold change /veh PLEKHG5 (11743358_a_at) / RFU ZSCAN30 (11745921_a_at) / Fold change /veh ZSCAN30 (11745921_a_at) / RFU CMKLR1 (11741424_a_at) / Fold change /veh CMKLR1 (11741424_a_at) / RFU LOC101060620 /// MAPK8IP1 (11723275_at) / Fold change /veh LOC101060620 /// MAPK8IP1 (11723275_at) / RFU SPTSSB (11747773_x_at) / Fold change /veh SPTSSB (11747773_x_at) / RFU PRSS12 (11739890_at) / Fold change /veh PRSS12 (11739890_at) / RFU BIN1 (11741810_x_at) / Fold change /veh BIN1 (11741810_x_at) / RFU WNT11 (11732464_a_at) / Fold change /veh WNT11 (11732464_a_at) / RFU C10orf10 (11716521_a_at) / Fold change /veh C10orf10 (11716521_a_at) / RFU C5orf56 (11738089_at) / Fold change /veh C5orf56 (11738089_at) / RFU CYB561 (11721691_x_at) / Fold change /veh CYB561 (11721691_x_at) / RFU ANKRD19P (11752326_a_at) / Fold change /veh ANKRD19P (11752326_a_at) / RFU OR2T12 /// OR2T33 /// OR2T8 (11738714_s_at) / Fold change /veh OR2T12 /// OR2T33 /// OR2T8 (11738714_s_at) / RFU VCAN (11748164_a_at) / Fold change /veh VCAN (11748164_a_at) / RFU JSRP1 (11732532_at) / Fold change /veh JSRP1 (11732532_at) / RFU KRTAP10-11 (11738290_x_at) / Fold change /veh KRTAP10-11 (11738290_x_at) / RFU MYO3A (11730013_a_at) / Fold change /veh MYO3A (11730013_a_at) / RFU EBF3 (11725865_a_at) / Fold change /veh EBF3 (11725865_a_at) / RFU CAMK2N1 (11719241_x_at) / Fold change /veh CAMK2N1 (11719241_x_at) / RFU C5orf56 (11738088_a_at) / Fold change /veh C5orf56 (11738088_a_at) / RFU OLFML3 (11715873_a_at) / Fold change /veh OLFML3 (11715873_a_at) / RFU LOC100653217 /// NTM (11731650_a_at) / Fold change /veh LOC100653217 /// NTM (11731650_a_at) / RFU MAPK11 (11762145_a_at) / Fold change /veh MAPK11 (11762145_a_at) / RFU FIZ1 (11724087_x_at) / Fold change /veh FIZ1 (11724087_x_at) / RFU OASL (11726364_x_at) / Fold change /veh OASL (11726364_x_at) / RFU SOX15 (11748057_x_at) / Fold change /veh SOX15 (11748057_x_at) / RFU CD79A (11719716_a_at) / Fold change /veh CD79A (11719716_a_at) / RFU HIST1H1D (11736915_at) / Fold change /veh HIST1H1D (11736915_at) / RFU CASKIN2 (11723855_a_at) / Fold change /veh CASKIN2 (11723855_a_at) / RFU LOC730098 (11760151_x_at) / Fold change /veh LOC730098 (11760151_x_at) / RFU OR4N2 (11742367_at) / Fold change /veh OR4N2 (11742367_at) / RFU PRRT2 (11749266_a_at) / Fold change /veh PRRT2 (11749266_a_at) / RFU SNX32 (11753110_a_at) / Fold change /veh SNX32 (11753110_a_at) / RFU CDHR5 (11726645_a_at) / Fold change /veh CDHR5 (11726645_a_at) / RFU RCAN1 (11760418_a_at) / Fold change /veh RCAN1 (11760418_a_at) / RFU FAM167A (11723789_a_at) / Fold change /veh FAM167A (11723789_a_at) / RFU FAM26E (11764081_at) / Fold change /veh FAM26E (11764081_at) / RFU ISYNA1 (11749810_s_at) / Fold change /veh ISYNA1 (11749810_s_at) / RFU ACY1 (11761880_at) / Fold change /veh ACY1 (11761880_at) / RFU 11764098_at / Fold change /veh 11764098_at / RFU SAMD14 (11745864_x_at) / Fold change /veh SAMD14 (11745864_x_at) / RFU NPB (11741838_a_at) / Fold change /veh NPB (11741838_a_at) / RFU TMPRSS6 (11731388_a_at) / Fold change /veh TMPRSS6 (11731388_a_at) / RFU KRTAP10-2 (11738614_at) / Fold change /veh KRTAP10-2 (11738614_at) / RFU ARHGAP8 /// PRR5-ARHGAP8 (11727945_x_at) / Fold change /veh ARHGAP8 /// PRR5-ARHGAP8 (11727945_x_at) / RFU KRTAP5-7 /// NADSYN1 (11734609_at) / Fold change /veh KRTAP5-7 /// NADSYN1 (11734609_at) / RFU RASL12 (11751679_a_at) / Fold change /veh RASL12 (11751679_a_at) / RFU CDKN2B (11736163_a_at) / Fold change /veh CDKN2B (11736163_a_at) / RFU PRF1 (11729649_at) / Fold change /veh PRF1 (11729649_at) / RFU, ZNF638 /// ZNF638-IT1 / Fold change vs veh, ZNF638 /// ZNF638-IT1 / RFU, PANK3 / Fold change vs veh, PANK3 / RFU, SH3YL1 / Fold change vs veh, SH3YL1 / RFU, ZEB2 / Fold change vs veh, ZEB2 / RFU, NRIP1 / Fold change vs veh, NRIP1 / RFU, PTTG1IP / Fold change vs veh, PTTG1IP / RFU, CAPN2 / Fold change vs veh, CAPN2 / RFU, MED14 / Fold change vs veh, MED14 / RFU, SNORA58 / Fold change vs veh, SNORA58 / RFU, C1orf63 / Fold change vs veh, C1orf63 / RFU, LRRFIP1 / Fold change vs veh, LRRFIP1 / RFU, NDUFAF7 / Fold change vs veh, NDUFAF7 / RFU, SLC12A2 / Fold change vs veh, SLC12A2 / RFU, IBTK / Fold change vs veh, IBTK / RFU, ESF1 / Fold change vs veh, ESF1 / Fold change vs veh, TMEM50B / RFU, TAOK1 / Fold change vs veh, TAOK1 / RFU, ACBD3 / Fold change vs veh, ACBD3 / RFU, TMA16 / Fold change vs veh, TMA16 / RFU, RWDD3 / Fold change vs veh, RWDD3 / RFU, BCAT1 / Fold change vs veh, BCAT1 / RFU, EDEM3 / Fold change vs veh, EDEM3 / RFU, TMEM33 / Fold change vs veh, TMEM33 / RFU, WDR75 / Fold change vs veh, WDR75 / RFU, AHCTF1 / Fold change vs veh, AHCTF1 / RFU, TFRC / Fold change vs veh, TFRC / RFU, ZDHHC17 / Fold change vs veh, ZDHHC17 / RFU, NOM1 / Fold change vs veh, NOM1 / RFU, ARL8B / Fold change vs veh, ARL8B / RFU, ZBTB11 / Fold change vs veh, ZBTB11 / RFU, TAMM41 / Fold change vs veh, TAMM41 / RFU, KIAA1704 /// LOC100996395 / Fold change vs veh, KIAA1704 /// LOC100996395 / RFU, ING1 / Fold change vs veh, ING1 / RFU, TRMT61B / Fold change vs veh, TRMT61B / RFU, FUBP3 / Fold change vs veh, FUBP3 / RFU, TP53 / Fold change vs veh, TP53 / RFU, TNKS2 / Fold change vs veh, TNKS2 / RFU, ZFP14 / Fold change vs veh, ZFP14 / RFU, ACTR2 / Fold change vs veh, ACTR2 / RFU, PPP3R1 / Fold change vs veh, PPP3R1 / RFU, PIK3R1 / Fold change vs veh, PIK3R1 / RFU, HNRNPA1 / Fold change vs veh, HNRNPA1 / RFU, RNF170 / Fold change vs veh, RNF170 / RFU, ZNF28 / Fold change vs veh, ZNF28 / RFU, RNGTT / Fold change vs veh, RNGTT / RFU, OGT / Fold change vs veh, OGT / RFU, BRD1 / Fold change vs veh, BRD1 / RFU, MARS / Fold change vs veh, MARS / RFU, ZNF655 / Fold change vs veh, ZNF655 / RFU, FAHD1 / Fold change vs veh, FAHD1 / RFU, BDP1 / Fold change vs veh, BDP1 / RFU, LRRCC1 / Fold change vs veh, LRRCC1 / RFU, ARID1A / Fold change vs veh, ARID1A / RFU, ZNF146 / Fold change vs veh, ZNF146 / RFU, ZNF330 / Fold change vs veh, ZNF330 / RFU, GPN3 / Fold change vs veh, GPN3 / RFU, C9orf123 / Fold change vs veh, C9orf123 / RFU, N4BP2L2 / Fold change vs veh, N4BP2L2 / RFU, ARFIP1 / Fold change vs veh, ARFIP1 / RFU, FAM179B / Fold change vs veh, FAM179B / RFU, BCL10 / Fold change vs veh, BCL10 / RFU, UHRF1BP1L / Fold change vs veh, UHRF1BP1L / RFU, BET1 / Fold change vs veh, BET1 / RFU, CNOT2 / Fold change vs veh, CNOT2 / RFU, ZNF268 / Fold change vs veh, ZNF268 / Fold change vs veh, ZNF507 / RFU, DGCR2 / Fold change vs veh, DGCR2 / RFU, WDSUB1 / Fold change vs veh, WDSUB1 / Fold change vs veh, HSP90B1 /// MIR3652 / RFU, ADSS / Fold change vs veh, ADSS / RFU, GK / Fold change vs veh, GK / RFU, ZNF148 / Fold change vs veh, ZNF148 / RFU, TAF9 / Fold change vs veh, TAF9 / RFU, SLC1A5 / Fold change vs veh, SLC1A5 / RFU, SLMO2 / Fold change vs veh, SLMO2 / RFU, ABCC4 / Fold change vs veh, ABCC4 / RFU, LOC101060439 /// RAP1B / Fold change vs veh, LOC101060439 /// RAP1B / RFU, RFX7 / Fold change vs veh, RFX7 / RFU, GTPBP10 / Fold change vs veh, GTPBP10 / RFU, CNEP1R1 / Fold change vs veh, CNEP1R1 / RFU, BIVM-ERCC5 /// ERCC5 / Fold change vs veh, BIVM-ERCC5 /// ERCC5 / RFU, ILF3 / Fold change vs veh, ILF3 / RFU 11762660_at / Fold change /veh 11762660_at / RFU VCAN (11757783_s_at) / Fold change /veh VCAN (11757783_s_at) / RFU DDX43 (11728927_at) / Fold change /veh DDX43 (11728927_at) / RFU KRT8 (11758188_x_at) / Fold change /veh KRT8 (11758188_x_at) / RFU NKD1 (11759106_at) / Fold change /veh NKD1 (11759106_at) / RFU SRD5A1 (11742802_a_at) / Fold change /veh SRD5A1 (11742802_a_at) / RFU TPSAB1 /// TPSB2 (11721975_s_at) / Fold change /veh TPSAB1 /// TPSB2 (11721975_s_at) / RFU GSTM3 (11746129_a_at) / Fold change /veh GSTM3 (11746129_a_at) / RFU IL23R (11737362_x_at) / Fold change /veh IL23R (11737362_x_at) / RFU TMEM51 (11727254_a_at) / Fold change /veh TMEM51 (11727254_a_at) / RFU PIWIL2 (11732686_x_at) / Fold change /veh PIWIL2 (11732686_x_at) / RFU ORM1 (11744905_x_at) / Fold change /veh ORM1 (11744905_x_at) / RFU CCDC152 (11743942_at) / Fold change /veh CCDC152 (11743942_at) / RFU ECM1 (11717891_a_at) / Fold change /veh ECM1 (11717891_a_at) / RFU IL23R (11748794_a_at) / Fold change /veh IL23R (11748794_a_at) / RFU TNFAIP8L3 (11732012_x_at) / Fold change /veh TNFAIP8L3 (11732012_x_at) / RFU MBOAT4 (11741988_at) / Fold change /veh MBOAT4 (11741988_at) / RFU 11764193_at / Fold change /veh 11764193_at / RFU TMEM53 (11763286_at) / Fold change /veh TMEM53 (11763286_at) / RFU MAGEB2 (11727129_at) / Fold change /veh MAGEB2 (11727129_at) / RFU TMEM200A (11744735_a_at) / Fold change /veh TMEM200A (11744735_a_at) / RFU CCDC152 (11751479_a_at) / Fold change /veh CCDC152 (11751479_a_at) / RFU FAM211A (11726209_a_at) / Fold change /veh FAM211A (11726209_a_at) / RFU RGS16 (11746705_a_at) / Fold change /veh RGS16 (11746705_a_at) / RFU VCAN (11755009_s_at) / Fold change /veh VCAN (11755009_s_at) / RFU RHOB (11743442_s_at) / Fold change /veh RHOB (11743442_s_at) / RFU RGS16 (11720943_a_at) / Fold change /veh RGS16 (11720943_a_at) / RFU RGS16 (11720944_at) / Fold change /veh RGS16 (11720944_at) / RFU, VPS4B / Fold change vs veh, VPS4B / RFU, CREB1 / Fold change vs veh, CREB1 / RFU, DNAJC13 / Fold change vs veh, DNAJC13 / RFU, GNAQ / Fold change vs veh, GNAQ / RFU, CDK5R1 / Fold change vs veh, CDK5R1 / RFU, ZRANB3 / Fold change vs veh, ZRANB3 / RFU, CUL4A / Fold change vs veh, CUL4A / RFU, CCNY / Fold change vs veh, CCNY / RFU, UFL1 / Fold change vs veh, UFL1 / RFU, COG3 / Fold change vs veh, COG3 / RFU, DIAPH2 / Fold change vs veh, DIAPH2 / RFU, SKA2 / Fold change vs veh, SKA2 / RFU, AFF3 / Fold change vs veh, AFF3 / RFU, LMF1 / Fold change vs veh, LMF1 / RFU, IPO11 / Fold change vs veh, IPO11 / RFU, DFFB / Fold change vs veh, DFFB / RFU, FOXP1 / Fold change vs veh, FOXP1 / RFU, CARD8 / Fold change vs veh, CARD8 / RFU, STRN3 / Fold change vs veh, STRN3 / RFU, ADK / Fold change vs veh, ADK / RFU, RASSF2 / Fold change vs veh, RASSF2 / RFU, WIPF1 / Fold change vs veh, WIPF1 / RFU, LARP1B / Fold change vs veh, LARP1B / RFU, RASA1 / Fold change vs veh, RASA1 / RFU, RB1 / Fold change vs veh, RB1 / RFU, PPFIA1 / Fold change vs veh, PPFIA1 / RFU, MAT2A / Fold change vs veh, MAT2A / RFU, CCT5 / Fold change vs veh, CCT5 / RFU, WDR92 / Fold change vs veh, WDR92 / RFU, CUX1 / Fold change vs veh, CUX1 / RFU, TTC7A / Fold change vs veh, TTC7A / RFU, TMEM135 / Fold change vs veh, TMEM135 / RFU, DEPTOR / Fold change vs veh, DEPTOR / RFU, CPM / Fold change vs veh, CPM / RFU, DNAJB6 / Fold change vs veh, DNAJB6 / RFU, CACNA2D3 / Fold change vs veh, CACNA2D3 / RFU, DTX4 / Fold change vs veh, DTX4 / RFU, TFCP2 / Fold change vs veh, TFCP2 / RFU, GMCL1 /// GMCL1P1 / Fold change vs veh, GMCL1 /// GMCL1P1 / RFU, AEBP2 / Fold change vs veh, AEBP2 / RFU, SNHG1 /// SNORD22 /// SNORD25 /// SNORD26 /// SNORD27 /// SNORD28 /// SNORD29 /// SNORD31 / Fold change vs veh, SNHG1 /// SNORD22 /// SNORD25 /// SNORD26 /// SNORD27 /// SNORD28 /// SNORD29 /// SNORD31 / Fold change (Aza/veh), C12orf56 (ProbeSet 11735607_a_at) / Fold change (ACY-1035/veh), C12orf56 (ProbeSet 11735607_a_at) / Fold change (Aza/veh), FGFR1OP (ProbeSet 11751329_s_at) / Fold change (ACY-1035/veh), FGFR1OP (ProbeSet 11751329_s_at) / Fold change (Aza/veh), VPS36 (ProbeSet 11739960_a_at) / Fold change (ACY-1035/veh), VPS36 (ProbeSet 11739960_a_at) / RFU SYPL1 (11715823_x_at) / Fold change /veh SYPL1 (11715823_x_at) / RFU IGFBP7 (11715501_s_at) / Fold change /veh IGFBP7 (11715501_s_at) / RFU REEP3 (11722064_at) / Fold change /veh REEP3 (11722064_at) / RFU IGLL1 (11728026_x_at) / Fold change /veh IGLL1 (11728026_x_at): dose or concentration left out as unconfirmed. The conditions noted are these: ProbeSet 11759095_at; LIST D.

The structures appear in SMILES notation.

As for `Nc1ncn([C@@H]2O[C@H](CO)[C@@H](O)[C@H]2O)c(=O)n1` [azacitidine], the “Fold change vs veh, GNAQ” value came to 0.81.

These data come from publication PMC5218480 (PLoS ONE, 2017).
